The source made the active and inactive calls. The calls are words filed in the database; no cut-off is given here.
What was measured:
[1] = target: T1, Serine/threonine-protein kinase DCLK1 (Homo sapiens, UniProt O15075); assay: Inhibition of recombinant human N-terminal His6-tagged DCLK1 (G351 to H689 residues) expressed in Escherichia coli BL21 DE3 using 5-FAM-KKLRRTLSVA-COOH as substrate measured after 2 hrs by mobility shift assay
T1 sequence (O15075 whole entry): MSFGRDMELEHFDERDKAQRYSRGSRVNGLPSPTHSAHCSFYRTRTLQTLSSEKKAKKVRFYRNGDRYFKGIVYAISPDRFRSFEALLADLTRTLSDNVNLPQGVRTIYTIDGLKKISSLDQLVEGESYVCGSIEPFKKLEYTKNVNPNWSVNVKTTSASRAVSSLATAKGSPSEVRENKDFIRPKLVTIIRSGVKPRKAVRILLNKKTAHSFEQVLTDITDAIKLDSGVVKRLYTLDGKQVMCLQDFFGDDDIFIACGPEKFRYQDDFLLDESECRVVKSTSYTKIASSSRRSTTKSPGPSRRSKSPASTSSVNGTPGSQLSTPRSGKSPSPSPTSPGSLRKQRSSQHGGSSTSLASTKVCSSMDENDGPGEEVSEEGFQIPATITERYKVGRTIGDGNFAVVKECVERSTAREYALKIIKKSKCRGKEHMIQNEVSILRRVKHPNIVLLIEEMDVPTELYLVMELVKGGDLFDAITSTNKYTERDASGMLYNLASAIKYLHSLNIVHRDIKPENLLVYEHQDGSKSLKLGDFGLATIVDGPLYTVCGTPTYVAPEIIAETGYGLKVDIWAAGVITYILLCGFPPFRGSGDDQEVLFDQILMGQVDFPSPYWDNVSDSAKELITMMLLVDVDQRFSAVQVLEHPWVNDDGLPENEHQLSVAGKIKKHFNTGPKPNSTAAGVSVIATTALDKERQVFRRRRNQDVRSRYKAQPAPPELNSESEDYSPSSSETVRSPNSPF

[2] = target: Leucine-rich repeat serine/threonine-protein kinase 2 (Homo sapiens, UniProt Q5S007); assay: Inhibition of recombinant human GST-tagged LRRK2 catalytic domain (970 to 2527 residues) expressed in baculovirus expression system using LRRKtide as substrate measured after 1 hr by Alexa fluor-647 ADP tracer-based ADAPTA assay
[3] = target: Bromodomain-containing protein 4 (Homo sapiens, UniProt O60885); assay: Inhibition of BRD4 bromodomain 1 (unknown origin) by AlphaScreen displacement assay
[4] = target: Mitogen-activated protein kinase 7 (Homo sapiens, UniProt Q13164); assay: Inhibition of ERK5 in human HeLa cells assessed as reduction in EGF-induced ERK5 autophosphorylation pretreated for 1 hr followed by EGF stimulation and measured after 17 mins by […]; type: cell-based
[5] = AUC in mouse; type: ADME, organism-based; conditions: in vivo
[6] = Cytotoxicity against human Panc281 cell organoids assessed as reduction in cell viability at 1 uM measured after 12 days relative to control; type: functional
[7] = Cytotoxicity against human Panc286 cell organoids assessed as reduction in cell viability at 1 uM measured after 12 days relative to control; type: functional
Homo sapiens [8] = species: Homo sapiens; assay: Cytotoxicity against human Panc281 cell organoids assessed as reduction in cell viability up to 1 uM measured after 4 days; type: functional
Homo sapiens [9] = species: Homo sapiens; assay: Cytotoxicity against human Panc286 cell organoids assessed as reduction in cell viability up to 1 uM measured after 4 days; type: functional
[10] = Half life in mouse; type: ADME, organism-based; conditions: in vivo
[11] = Clearance in mouse; type: ADME, organism-based; conditions: in vivo

Sequence of Leucine-rich repeat serine/threonine-protein kinase 2 (Q5S007 whole entry, the tested form may be a part): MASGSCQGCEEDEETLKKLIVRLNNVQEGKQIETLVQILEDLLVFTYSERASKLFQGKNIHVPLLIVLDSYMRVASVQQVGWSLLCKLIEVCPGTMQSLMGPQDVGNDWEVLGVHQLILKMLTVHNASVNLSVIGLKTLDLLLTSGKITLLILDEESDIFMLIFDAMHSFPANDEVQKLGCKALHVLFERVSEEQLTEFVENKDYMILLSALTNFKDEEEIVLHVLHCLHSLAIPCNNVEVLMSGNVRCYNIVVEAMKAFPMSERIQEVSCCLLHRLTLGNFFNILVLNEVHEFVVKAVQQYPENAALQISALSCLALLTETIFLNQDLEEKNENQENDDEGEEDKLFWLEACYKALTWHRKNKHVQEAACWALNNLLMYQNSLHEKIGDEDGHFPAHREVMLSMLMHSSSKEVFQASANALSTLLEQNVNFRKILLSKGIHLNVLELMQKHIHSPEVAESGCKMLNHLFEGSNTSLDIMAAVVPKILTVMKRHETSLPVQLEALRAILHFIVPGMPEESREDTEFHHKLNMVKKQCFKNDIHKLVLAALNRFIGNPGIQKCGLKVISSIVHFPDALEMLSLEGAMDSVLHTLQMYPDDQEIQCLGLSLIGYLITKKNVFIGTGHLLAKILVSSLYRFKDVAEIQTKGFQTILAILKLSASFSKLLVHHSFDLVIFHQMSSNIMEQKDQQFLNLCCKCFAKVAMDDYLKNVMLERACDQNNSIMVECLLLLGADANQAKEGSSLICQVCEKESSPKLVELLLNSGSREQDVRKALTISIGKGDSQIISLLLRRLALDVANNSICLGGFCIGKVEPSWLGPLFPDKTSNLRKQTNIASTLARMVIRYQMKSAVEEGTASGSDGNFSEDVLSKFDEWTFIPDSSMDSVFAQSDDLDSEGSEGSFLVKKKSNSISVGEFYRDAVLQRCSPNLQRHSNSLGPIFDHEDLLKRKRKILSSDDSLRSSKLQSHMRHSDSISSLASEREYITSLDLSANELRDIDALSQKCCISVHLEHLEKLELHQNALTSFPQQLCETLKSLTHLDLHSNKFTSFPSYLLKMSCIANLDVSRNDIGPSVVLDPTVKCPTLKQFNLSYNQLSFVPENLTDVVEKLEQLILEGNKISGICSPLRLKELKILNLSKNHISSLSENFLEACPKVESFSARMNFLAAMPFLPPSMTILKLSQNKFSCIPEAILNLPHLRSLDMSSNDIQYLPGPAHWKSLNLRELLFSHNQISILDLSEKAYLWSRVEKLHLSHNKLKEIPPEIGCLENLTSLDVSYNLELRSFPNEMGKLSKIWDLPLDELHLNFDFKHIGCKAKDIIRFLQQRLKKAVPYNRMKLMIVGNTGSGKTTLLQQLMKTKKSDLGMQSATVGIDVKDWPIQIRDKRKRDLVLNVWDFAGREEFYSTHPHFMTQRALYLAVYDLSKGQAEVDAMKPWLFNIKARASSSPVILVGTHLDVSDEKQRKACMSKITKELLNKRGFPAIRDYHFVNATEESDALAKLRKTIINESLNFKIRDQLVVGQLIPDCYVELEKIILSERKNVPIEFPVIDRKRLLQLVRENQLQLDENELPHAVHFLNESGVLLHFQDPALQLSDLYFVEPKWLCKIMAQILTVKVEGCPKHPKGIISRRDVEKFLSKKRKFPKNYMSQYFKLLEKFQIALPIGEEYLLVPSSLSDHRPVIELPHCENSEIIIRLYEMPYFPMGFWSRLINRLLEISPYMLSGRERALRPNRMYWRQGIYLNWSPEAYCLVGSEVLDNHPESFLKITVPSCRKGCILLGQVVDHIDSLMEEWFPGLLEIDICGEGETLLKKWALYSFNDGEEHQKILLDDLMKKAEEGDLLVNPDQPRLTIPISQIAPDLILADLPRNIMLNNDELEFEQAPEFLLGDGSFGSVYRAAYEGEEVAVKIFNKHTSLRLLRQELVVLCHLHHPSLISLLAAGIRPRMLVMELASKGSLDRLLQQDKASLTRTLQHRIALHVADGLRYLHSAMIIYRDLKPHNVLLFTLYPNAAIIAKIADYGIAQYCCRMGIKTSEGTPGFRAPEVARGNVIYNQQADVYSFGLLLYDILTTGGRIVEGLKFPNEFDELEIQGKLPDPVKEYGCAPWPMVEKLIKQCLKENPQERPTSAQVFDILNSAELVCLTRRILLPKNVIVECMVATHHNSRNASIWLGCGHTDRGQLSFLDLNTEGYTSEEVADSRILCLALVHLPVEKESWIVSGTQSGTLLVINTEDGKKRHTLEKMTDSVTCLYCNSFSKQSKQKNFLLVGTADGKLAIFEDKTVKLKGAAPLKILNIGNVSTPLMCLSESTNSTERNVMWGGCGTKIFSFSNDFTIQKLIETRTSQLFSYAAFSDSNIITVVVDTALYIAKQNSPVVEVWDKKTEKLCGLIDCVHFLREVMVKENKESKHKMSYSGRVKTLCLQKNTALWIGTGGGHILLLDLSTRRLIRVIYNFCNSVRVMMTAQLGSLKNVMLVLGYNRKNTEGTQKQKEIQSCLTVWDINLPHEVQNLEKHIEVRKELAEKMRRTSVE
Sequence of Mitogen-activated protein kinase 7 (Q13164 whole entry): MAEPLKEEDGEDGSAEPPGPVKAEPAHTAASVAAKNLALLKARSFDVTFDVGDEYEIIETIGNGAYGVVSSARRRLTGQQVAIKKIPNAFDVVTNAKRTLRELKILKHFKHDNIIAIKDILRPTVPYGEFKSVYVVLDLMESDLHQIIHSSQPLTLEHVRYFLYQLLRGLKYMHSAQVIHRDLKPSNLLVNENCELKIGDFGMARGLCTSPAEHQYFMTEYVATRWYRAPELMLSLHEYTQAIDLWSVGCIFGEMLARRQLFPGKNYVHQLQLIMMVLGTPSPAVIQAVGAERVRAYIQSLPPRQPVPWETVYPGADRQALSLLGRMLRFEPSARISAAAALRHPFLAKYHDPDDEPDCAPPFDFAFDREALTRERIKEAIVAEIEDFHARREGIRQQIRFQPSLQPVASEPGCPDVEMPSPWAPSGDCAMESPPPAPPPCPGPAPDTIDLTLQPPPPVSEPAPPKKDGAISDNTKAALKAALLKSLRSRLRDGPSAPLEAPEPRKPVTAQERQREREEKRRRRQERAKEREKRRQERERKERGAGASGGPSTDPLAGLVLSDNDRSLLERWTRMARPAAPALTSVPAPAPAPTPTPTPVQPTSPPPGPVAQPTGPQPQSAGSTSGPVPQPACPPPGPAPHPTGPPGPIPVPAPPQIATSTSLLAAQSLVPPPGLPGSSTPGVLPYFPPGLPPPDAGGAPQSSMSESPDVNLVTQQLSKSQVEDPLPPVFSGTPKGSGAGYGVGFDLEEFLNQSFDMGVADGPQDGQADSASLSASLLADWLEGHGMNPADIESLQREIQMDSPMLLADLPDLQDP

IC50 [1] [nM]	IC50 [2] [nM]	IC50 [3] [nM]	Structure (SMILES)	other results
187	7		CN1C(=O)c2ccccc2N(C)c2nc(Nc3ccc(S(N)(=O)=O)cc3)ncc21	
> 1000	683	7490	COc1cc(NS(C)(=O)=O)ccc1Nc1ncc2c(n1)N(C)c1ccccc1C(=O)N2C(C)C	
3	62	830	CCN1C(=O)c2ccccc2N(C)c2nc(Nc3ccc(N4CCN(C)CC4)cc3OC)ncc21	IC50 [4]: 1200 nM
3 to 16	5.9 to 6	125	COc1cc(NS(C)(=O)=O)ccc1Nc1ncc2c(n1)N(C)c1ccccc1C(=O)N2C	IC50 [4]: 276 nM
2			CN1C(=O)c2ccccc2N(C)c2nc(Nc3ccc(NS(C)(=O)=O)cc3)ncc21	
10	378	1570	COc1cc(C(=O)NC2CCN(C)CC2)ccc1Nc1ncc2c(n1)N(C)c1ccccc1C(=O)N2CC(F)(F)F	
126	331	2380	COc1cc(C(=O)NC2CCN(C)CC2)ccc1Nc1ncc2c(n1)N(C)c1ccccc1C(=O)N2C(C)C	
80	8890	> 10000	COc1cc(NS(C)(=O)=O)ccc1Nc1ncc2c(n1)N(C)c1ccccc1C(=O)N2CC(F)(F)F	
97	14.1		COc1cc(N2CCC(O)CC2)ccc1Nc1ncc2c(n1)N(C)c1ccccc1C(=O)N2C	
2	14	520	CCN1C(=O)c2ccccc2N(C)c2nc(Nc3ccc(C(=O)NC4CCN(C)CC4)cc3OC)ncc21	IC50 [4]: 482 nM
22	171		CCOc1cc(C(=O)N2CCC(N3CCN(C)CC3)CC2)ccc1Nc1ncc2c(n1)N(C1CCCC1)c1ccccc1C(=O)N2C	
109	30		CN1C(=O)c2ccccc2N(C)c2nc(Nc3ccc(N4CCC(O)CC4)cc3)ncc21	
111	6.1		CN1C(=O)c2ccccc2N(C)c2nc(Nc3cccc(S(N)(=O)=O)c3)ncc21	
510	160		CC(C)Oc1cc(N2CCC(O)CC2)ccc1Nc1ncc2c(n1)N(C)c1ccccc1C(=O)N2C	
104	16		COc1cc(N2CCN(C3CCN(C)CC3)CC2)ccc1Nc1ncc2c(n1)N(C)c1ccccc1C(=O)N2C	
36	23	4600	CCN1C(=O)c2ccccc2N(C)c2nc(Nc3ccc(NS(C)(=O)=O)cc3OC)ncc21	
	5		COc1cc(C(=O)N2CCN(C3CCN(C)CC3)CC2)ccc1Nc1ncc2c(n1)N(C)c1ccccc1C(=O)N2C	
716	46		CCOc1cc(N2CCC(O)CC2)ccc1Nc1ncc2c(n1)N(C)c1ccccc1C(=O)N2C	
> 5000			COc1cc(N2CCN(C)CC2)ccc1Nc1ncc2c(n1)N(C)c1ccc(C)cc1C(=O)N2CC(F)(F)F	
52	23		COc1cc(N2CCNCC2)ccc1Nc1ncc2c(n1)N(C)c1ccccc1C(=O)N2C	
1 to 4	8.2 to 18	4170	COc1cc(C(=O)NC2CCN(C)CC2)ccc1Nc1ncc2c(n1)N(C)c1ccccc1C(=O)N2C	
37	35		Cc1cc(N2CCC(O)CC2)ccc1Nc1ncc2c(n1)N(C)c1ccccc1C(=O)N2C	
214			CC(C)Oc1cc(N2CCN(C)CC2)ccc1Nc1ncc2c(n1)N(C)c1ccccc1C(=O)N2CC(F)(F)F	
> 1000	70	> 10000	COc1cc(N2CCN(C)CC2)ccc1Nc1ncc2c(n1)N(C)c1ccccc1C(=O)N2	IC50 [4]: 1200 nM
411	1900	1200	COc1cc(N2CCN(C)CC2)ccc1Nc1ncc2c(n1)N(C)c1ccccc1C(=O)N2C(C)C	
11	31		COc1cc(N2CCOCC2)ccc1Nc1ncc2c(n1)N(C)c1ccccc1C(=O)N2C	

Structure (SMILES)	IC50 [1] [nM]	IC50 [2] [nM]	IC50 [3] [nM]	other results
COc1cc(N2CCN(C)CC2)ccc1Nc1ncc2c(n1)N(C(C)C)c1ccccc1C(=O)N2C	71	289		
COc1cc(N2CCN(C)CC2)ccc1Nc1ncc2c(n1)N(C1CCCC1)c1ccccc1C(=O)N2C	26	421		
COc1cc(N2CCN(C)CC2)ccc1Nc1ncc2c(n1)N(C)c1ccccc1C(=O)N2C	11 to 16	29	888	
COc1cc(N2CCN(C)CC2)ccc1Nc1ncc2c(n1)N(C)c1ccc(Cl)cc1C(=O)N2C	> 2000	1330		
COc1cc(N2CCN(C)CC2)ccc1Nc1ncc2c(n1)N(C)c1cc(Cl)ccc1C(=O)N2C	> 2000	3740		
COc1cc(N2CCN(C)CC2)ccc1Nc1ncc2c(n1)N(C)c1ccc(C)cc1C(=O)N2C	> 2000	928		
COc1cc(N2CCN(C)CC2)ccc1Nc1ncc2c(n1)N(Cc1ccccc1)c1ccccc1C(=O)N2C	4	141		
CCC(C)N1c2ccccc2C(=O)N(C)c2cnc(Nc3ccc(N4CCN(C)CC4)cc3OC)nc21 (stereo not given)	32	743		IC50 [4]: 222 nM
COc1cc(N2CCN(C)CC2)ccc1Nc1ncc2c(n1)N(C)c1ccccc1C(=O)N2CC(F)(F)F	17	7000	> 10000	AUC [5]: 1270 ng·h/mL; Activity [6]: >=50 - 90%; Activity [7]: >=50 - 90%; Activity (Homo sapiens [8]): inactive; Activity (Homo sapiens [9]): inactive; t1/2 [10]: 2.09 h; clearance [11]: 26.3 mL/min/kg; IC50 ([4]; hela): 3350 nM
COc1cc(N2CCN(C)CC2)ccc1Nc1ncc2c(n1)N(C1CCC1)c1ccccc1C(=O)N2C	14	97		IC50 [4]: 79 nM
COc1cc(N2CCN(C)CC2)ccc1Nc1nc(C)c2c(n1)N(C)c1ccccc1C(=O)N2C	> 2000	501		IC50 [4]: > 10000 nM
CCN1c2ccccc2C(=O)N(C)c2cnc(Nc3ccc(N4CCN(C)CC4)cc3OC)nc21	154	57		

From ChEMBL document CHEMBL4610122, “Synthesis and Structure-Activity Relationships of DCLK1 Kinase Inhibitors Based on a 5,11-Dihydro-6H-benzo[e]pyrimido[5,4-b][1,4]diazepin-6-one Scaffold” (J Med Chem, 2020)
